This passage reports IC50 results from patent US8648201B2, “Aminopyridine derivatives for treating tumors and inflammatory diseases” (MERCK PATENT GmbH, priority 2009, dated 2014).

The target of one experiment is T1, IRAK-1 (Homo sapiens, UniProt P51617).
T1 construct: His6 (N); Dr.Jaekel Pool B, 232Y08C1.IRK
As to the kind of experiment: Test for the inhibition of IRAK1 (autophosphorylation, flashplate). Type of experiment: biochemical. The settings on record: enzyme. The gist of the method:
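His6-IRAK1 (5.1 nM) autophosphorylation with 1 μM ATP plus ^33P-ATP, 180 min at 22° C, read as incorporated radioactivity. Blank with 1 μM staurosporin was subtracted and activity expressed as % of no-compound control. IC50 derived from the dilution series.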

The next experiment deals with T2, IRAK-4 (Homo sapiens, UniProt Q9NWZ3).
T2 construct: His6 (N); Dr.Jaekel
T2 sequence (Q9NWZ3 1-460): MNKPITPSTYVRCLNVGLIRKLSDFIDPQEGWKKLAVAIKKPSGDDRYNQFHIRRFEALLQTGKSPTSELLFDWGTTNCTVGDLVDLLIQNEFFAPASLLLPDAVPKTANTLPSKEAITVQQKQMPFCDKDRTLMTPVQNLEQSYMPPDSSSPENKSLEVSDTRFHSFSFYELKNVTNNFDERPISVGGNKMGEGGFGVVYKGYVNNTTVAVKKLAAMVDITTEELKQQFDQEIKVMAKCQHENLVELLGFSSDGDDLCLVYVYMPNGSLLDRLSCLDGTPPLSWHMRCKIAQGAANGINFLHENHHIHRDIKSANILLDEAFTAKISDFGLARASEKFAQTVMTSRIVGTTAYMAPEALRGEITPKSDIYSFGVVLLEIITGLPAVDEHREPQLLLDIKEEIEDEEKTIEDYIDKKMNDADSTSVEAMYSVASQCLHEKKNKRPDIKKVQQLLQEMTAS
The experiment is described as follows: Test for the inhibition of IRAK4 (flashplate, 33P-ATP). Type of experiment: biochemical. To be noted: enzyme. In outline: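 His6-IRAK4 (7.3 nM) with biotinylated STK substrate 1 peptide (300 nM) and 10 μM ATP spiked with ^33P-ATP, incubated 180 min at 22° C. Incorporated radioactivity counted; blank from 1 μM staurosporine subtracted, activity expressed as % of no-compound control, IC50 by statistical fit.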

The target in the next experiment is T3, PDK1 (Homo sapiens, UniProt O15530).
T3 construct: endogenous in cells; host or cells: commercially available colon carcinoma, ovary, prostate or breast cell lines (none named)
T3 sequence (O15530 1-556): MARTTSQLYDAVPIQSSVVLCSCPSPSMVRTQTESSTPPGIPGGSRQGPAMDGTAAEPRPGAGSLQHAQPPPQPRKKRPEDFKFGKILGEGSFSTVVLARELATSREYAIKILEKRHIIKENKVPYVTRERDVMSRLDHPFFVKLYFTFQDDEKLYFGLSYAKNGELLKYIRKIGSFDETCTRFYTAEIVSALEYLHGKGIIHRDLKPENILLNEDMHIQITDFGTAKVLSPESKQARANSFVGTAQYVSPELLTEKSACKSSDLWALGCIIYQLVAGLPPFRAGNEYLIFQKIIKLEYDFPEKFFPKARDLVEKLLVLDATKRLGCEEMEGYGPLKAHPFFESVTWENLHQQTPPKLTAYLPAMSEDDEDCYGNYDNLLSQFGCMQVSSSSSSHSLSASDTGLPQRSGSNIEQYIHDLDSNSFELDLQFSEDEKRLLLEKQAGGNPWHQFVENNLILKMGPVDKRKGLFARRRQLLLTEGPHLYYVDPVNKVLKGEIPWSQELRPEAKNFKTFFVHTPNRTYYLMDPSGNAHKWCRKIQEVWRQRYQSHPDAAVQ
As to the kind of experiment: IC50 PDK1 (cell). Type of experiment: cell-based. Here is the method:
The cells are sown in a suitable cell density in microtitre plates (96-well format) and the test substances are added in the form of a concentration series. After four further days of cultivation in serum-containing medium, the tumour cell proliferation/tumour cell vitality can be determined by means of an Alamar Blue test system. A defined number of cells (for example 2000 cells) per culture/well in a volume of 180 μl of culture medium are sown in microtitre plates (96 well cell-culture plates) using a multichannel pipette. The cells are subsequently cultivated in a CO2 incubator (37° C. and 10% CO2). The test substances are dissolved, for example, in DMSO and subsequently employed in corresponding concentration (if desired in a dilution series) in the cell culture medium. The dilution steps can be adapted depending on the efficiency of the active ingredients and the desired spread of the concentrations. Cell culture medium is added to the test substances in corresponding concentrations. The addition of the test substances to the cells can take place on the same day as the sowing of the cells. To this end, in each case 20 μl of substance solution from the predilution plate are added to the cultures/wells. The cells are cultivated for a further 4 days at 37° Celsius and 10% CO2. In each case, 20 μl of Alamar Blue reagent are added per well, and the microtitre plates are incubated, for example, for a further seven hours in a CO2 incubator (at 37° C. and 10% CO2). The plates are measured in a reader with a fluorescence filter at a wavelength of 540 nm. The plates can be shaken gently immediately before the measurement. The absorbance value of the medium control (no cells and test substances used) is subtracted from all other absorbance values. The controls (cells without test substance) are set equal to 100 percent, and all other absorbance values are set in relation thereto (for example in % of control): Calculation: 100*(value with cells and test substance−value of medium control)/(value with cells−value of medium control) IC50 values (50% inhibition) are determined with the aid of statistics programs, such as, for example, RS1.

Where only a bound is given, the exact number is not on record here.

T1 sequence (P51617 whole entry, species assumed): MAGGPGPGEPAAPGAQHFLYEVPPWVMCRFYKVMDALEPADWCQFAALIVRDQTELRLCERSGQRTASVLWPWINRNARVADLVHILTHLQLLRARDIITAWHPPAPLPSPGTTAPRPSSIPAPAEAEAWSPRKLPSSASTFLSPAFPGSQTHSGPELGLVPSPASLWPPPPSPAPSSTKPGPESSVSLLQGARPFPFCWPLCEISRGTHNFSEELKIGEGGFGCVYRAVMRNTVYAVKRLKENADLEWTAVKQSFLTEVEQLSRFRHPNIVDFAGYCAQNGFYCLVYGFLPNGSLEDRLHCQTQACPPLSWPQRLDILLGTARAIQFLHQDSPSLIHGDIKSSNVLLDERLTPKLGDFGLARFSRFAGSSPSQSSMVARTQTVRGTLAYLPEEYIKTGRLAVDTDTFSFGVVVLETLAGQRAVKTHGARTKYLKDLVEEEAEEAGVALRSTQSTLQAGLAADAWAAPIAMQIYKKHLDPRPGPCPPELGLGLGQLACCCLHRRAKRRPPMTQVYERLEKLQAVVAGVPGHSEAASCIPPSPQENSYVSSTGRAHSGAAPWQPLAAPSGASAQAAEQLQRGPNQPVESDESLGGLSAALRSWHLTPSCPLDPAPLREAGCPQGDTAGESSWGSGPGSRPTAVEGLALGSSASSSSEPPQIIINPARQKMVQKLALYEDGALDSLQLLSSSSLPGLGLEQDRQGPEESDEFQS

A word on the IC50: it is the midpoint of a concentration-inhibition curve. A low value points to greater potency. Consider `COc1ccc2nc(-c3cc(-c4ccsc4)cnc3N)[nH]c2c1` [Compound A144, 3-(6-methoxy-1H-benzimidazol-2-yl)-5-thiophen-3-ylpyridin-2-ylamine], for which the IC50 was 100 to 10000 nM against IRAK-1, 100 to 10000 nM at IRAK-4 and greater than 10000 nM at PDK1.

As to `Cn1cc(-c2cnc(N)c(-c3nc4ccc(C(=O)NCCc5ccc(F)c(F)c5)cc4[nH]3)c2)cn1` [Compound A128, N-[2-(3,4-difluorophenyl)ethyl]-2-[2-amino-5-(1-methyl-1H-pyrazol-4-yl)pyridin-3-yl]-3H-benzimidazole-5-carboxamide], the IC50 is 100 to 10000 nM on IRAK-1, 100 to 10000 nM at IRAK-4 and greater than 10000 nM at PDK1.

With `CC1CC(=O)NN=C1c1ccc2nc(-c3cc(-c4cnn(C)c4)cnc3N)[nH]c2c1` (racemic) [Compound A1, 6-{2-[2-amino-5-(1-methyl-1H-pyrazol-4-yl)pyridin-3-yl]-3H-benzimidazol-5-yl}-5-methyl-4,5-dihydro-2H-pyridazin-3-one], the IC50 at IRAK-1 was 100 to 10000 nM; at IRAK-4, greater than 10000 nM; at PDK1, 100 to 10000 nM.

As to `COc1ccc2nc(-c3cc(-c4cnn(C5CCNCC5)c4)cnc3N)[nH]c2c1` [Compound A92, 3-(6-Methoxy-1H-benzimidazol-2-yl)-5-(1-piperidin-4-yl-1H-pyrazol-4-yl)pyridin-2-ylamine], the results for the IC50 against IRAK-1, against IRAK-4 and against PDK1 were 1 to 100 nM, 1 to 100 nM and greater than 10000 nM, respectively.

Turning to `COc1ccc2nc(-c3cc(-c4cnn(C)c4)cnc3N)[nH]c2c1` [Compound A43], the IC50 against IRAK-1 is 100 to 10000 nM; against IRAK-4, 100 to 10000 nM; against PDK1, greater than 10000 nM.

Regarding `Cn1cc(-c2cnc(N)c(-c3nc4cccc(CO)c4[nH]3)c2)cn1` [Compound A52], the half-maximal inhibitory concentration (IC50) on IRAK-1, on IRAK-4 and against PDK1 was 100 to 10000 nM in each case.

`COc1ccc2nc(-c3cc(-c4ccc(C(=O)NC5CCN(C)CC5)s4)cnc3N)[nH]c2c1` [Compound A133, N-(1-Methylpiperidin-4-yl)-5-[6-amino-5-(6-methoxy-1H-benzimidazol-2-yl)pyridin-3-yl]thiophene-2-carboxamide]: the IC50 at IRAK-1 was 1 to 100 nM; at IRAK-4 it was 1 to 100 nM; at PDK1, greater than 10000 nM.
